From the supplement of paper PMC12463676, “Small-molecule dissolution of stress granules by redox modulation benefits ALS models” (Nature Chemical Biology, 2025)

What was measured:
potassium arsenate = compound: O=[As]([O-])(O)O.[K+] [potassium arsenate]; assay: thermal stability z-score vs DMSO; higher = more thermally stabilized by treatment; details: HeLa; arsenate concentration 1 mM
Protocol: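 Cellular thermal proteome profiling in HeLa cells treated with 1 mM arsenate for 1 h (DMSO pretreatment), heated to ten temperatures (37-66.3 °C). Soluble protein was quantified by TMT mass spectrometry relative to DMSO controls; the thermal stability score was transformed to a z-score; mean of n = 3 experiments.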

lipoamide = compound: NC(=O)CCCCC1CCSS1 [lipoamide]; assay: as above; details: HeLa, lipoamide concentration 100 µM
Protocol: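 Cellular thermal proteome profiling in HeLa cells. Cells were treated with 100 µM lipoamide for 1 h, with or without 1 mM arsenate for a further 1 h, then heated to ten temperatures (37-66.3 °C), and soluble protein was quantified by TMT mass spectrometry relative to 0.1% DMSO controls. The thermal stability score (sum of log2 fold changes minus the abundance score) was transformed to a z-score; mean of n = 3 experiments.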

[1] = arsenate co-treatment: 1 mM arsenate 1 h
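Note: each temperature applied for 3 min, abundance score taken as mean log2 fold change at the two lowest temperatures, z-score obtained by mean subtraction and division by SD.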

UniProt P24385, sequence (P24385 whole entry): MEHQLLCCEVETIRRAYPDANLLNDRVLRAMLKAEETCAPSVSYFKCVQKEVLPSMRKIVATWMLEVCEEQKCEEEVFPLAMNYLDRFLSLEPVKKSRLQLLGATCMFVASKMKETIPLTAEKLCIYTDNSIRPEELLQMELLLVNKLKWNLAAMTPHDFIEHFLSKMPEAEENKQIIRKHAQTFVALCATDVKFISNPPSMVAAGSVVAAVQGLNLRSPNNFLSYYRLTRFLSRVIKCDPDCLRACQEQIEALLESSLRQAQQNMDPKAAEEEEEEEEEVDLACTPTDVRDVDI
UniProt Q4G0I0, sequence (Q4G0I0 whole entry): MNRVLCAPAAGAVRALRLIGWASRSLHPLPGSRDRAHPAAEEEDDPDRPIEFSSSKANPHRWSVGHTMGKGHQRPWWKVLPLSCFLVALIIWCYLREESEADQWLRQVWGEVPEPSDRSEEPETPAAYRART
UniProt O60563, sequence (O60563 whole entry): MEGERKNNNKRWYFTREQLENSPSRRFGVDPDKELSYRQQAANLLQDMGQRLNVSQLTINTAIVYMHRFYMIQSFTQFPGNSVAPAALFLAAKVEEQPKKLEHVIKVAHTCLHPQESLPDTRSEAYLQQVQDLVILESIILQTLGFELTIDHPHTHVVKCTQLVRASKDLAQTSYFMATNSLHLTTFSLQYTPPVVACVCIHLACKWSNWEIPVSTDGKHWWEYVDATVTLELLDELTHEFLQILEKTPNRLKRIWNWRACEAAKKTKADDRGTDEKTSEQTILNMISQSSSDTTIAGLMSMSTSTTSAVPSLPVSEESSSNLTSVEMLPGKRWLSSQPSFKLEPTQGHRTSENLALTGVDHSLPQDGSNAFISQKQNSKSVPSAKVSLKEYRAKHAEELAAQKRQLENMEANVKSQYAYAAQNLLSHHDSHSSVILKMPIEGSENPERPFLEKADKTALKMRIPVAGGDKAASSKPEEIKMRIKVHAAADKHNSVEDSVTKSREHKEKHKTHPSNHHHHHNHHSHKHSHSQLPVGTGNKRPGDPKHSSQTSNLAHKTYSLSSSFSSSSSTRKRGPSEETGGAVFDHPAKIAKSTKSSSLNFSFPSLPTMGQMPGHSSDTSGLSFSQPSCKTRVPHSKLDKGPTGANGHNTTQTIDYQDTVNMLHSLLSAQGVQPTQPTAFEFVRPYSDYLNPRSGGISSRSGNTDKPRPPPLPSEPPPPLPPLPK
UniProt O75909, sequence (O75909 whole entry): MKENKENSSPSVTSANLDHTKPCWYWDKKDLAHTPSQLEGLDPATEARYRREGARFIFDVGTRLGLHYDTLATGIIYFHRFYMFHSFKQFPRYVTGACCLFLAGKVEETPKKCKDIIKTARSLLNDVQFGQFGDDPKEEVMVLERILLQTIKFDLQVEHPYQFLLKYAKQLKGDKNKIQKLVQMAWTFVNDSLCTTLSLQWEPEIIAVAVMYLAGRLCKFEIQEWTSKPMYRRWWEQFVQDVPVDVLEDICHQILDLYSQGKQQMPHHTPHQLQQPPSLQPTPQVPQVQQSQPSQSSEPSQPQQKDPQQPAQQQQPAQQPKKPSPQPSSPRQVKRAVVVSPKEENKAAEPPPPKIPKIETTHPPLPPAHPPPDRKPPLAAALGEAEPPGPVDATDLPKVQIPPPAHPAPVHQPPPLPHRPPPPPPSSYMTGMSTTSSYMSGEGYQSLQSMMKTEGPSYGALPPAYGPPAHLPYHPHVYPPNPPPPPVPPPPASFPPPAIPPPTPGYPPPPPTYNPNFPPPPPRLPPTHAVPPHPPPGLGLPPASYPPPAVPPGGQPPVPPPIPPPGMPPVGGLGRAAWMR
UniProt O95067, sequence (O95067 whole entry): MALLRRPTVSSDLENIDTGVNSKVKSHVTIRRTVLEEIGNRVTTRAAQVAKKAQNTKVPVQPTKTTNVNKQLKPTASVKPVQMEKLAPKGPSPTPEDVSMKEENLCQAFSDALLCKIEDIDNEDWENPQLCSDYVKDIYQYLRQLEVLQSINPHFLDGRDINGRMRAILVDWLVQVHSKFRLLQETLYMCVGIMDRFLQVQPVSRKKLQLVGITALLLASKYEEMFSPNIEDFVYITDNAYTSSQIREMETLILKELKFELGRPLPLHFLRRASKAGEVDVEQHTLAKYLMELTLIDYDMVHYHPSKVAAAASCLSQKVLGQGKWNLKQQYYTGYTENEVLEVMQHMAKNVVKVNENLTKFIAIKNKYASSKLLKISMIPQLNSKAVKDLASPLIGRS
UniProt P50991, sequence (P50991 whole entry): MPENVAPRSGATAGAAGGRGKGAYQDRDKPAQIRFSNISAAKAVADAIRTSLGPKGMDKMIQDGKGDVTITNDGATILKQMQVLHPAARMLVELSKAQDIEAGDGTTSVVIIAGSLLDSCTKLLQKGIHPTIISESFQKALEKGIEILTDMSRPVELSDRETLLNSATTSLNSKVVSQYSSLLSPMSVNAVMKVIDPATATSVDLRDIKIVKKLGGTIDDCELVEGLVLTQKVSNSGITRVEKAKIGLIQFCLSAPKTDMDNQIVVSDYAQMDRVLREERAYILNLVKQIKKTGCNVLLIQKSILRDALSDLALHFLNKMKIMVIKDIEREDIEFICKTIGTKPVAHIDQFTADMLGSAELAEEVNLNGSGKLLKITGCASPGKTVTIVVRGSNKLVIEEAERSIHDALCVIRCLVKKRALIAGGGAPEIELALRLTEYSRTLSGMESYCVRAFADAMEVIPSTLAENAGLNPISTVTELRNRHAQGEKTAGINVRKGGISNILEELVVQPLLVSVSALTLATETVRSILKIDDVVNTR
UniProt P16070, sequence (P16070 whole entry): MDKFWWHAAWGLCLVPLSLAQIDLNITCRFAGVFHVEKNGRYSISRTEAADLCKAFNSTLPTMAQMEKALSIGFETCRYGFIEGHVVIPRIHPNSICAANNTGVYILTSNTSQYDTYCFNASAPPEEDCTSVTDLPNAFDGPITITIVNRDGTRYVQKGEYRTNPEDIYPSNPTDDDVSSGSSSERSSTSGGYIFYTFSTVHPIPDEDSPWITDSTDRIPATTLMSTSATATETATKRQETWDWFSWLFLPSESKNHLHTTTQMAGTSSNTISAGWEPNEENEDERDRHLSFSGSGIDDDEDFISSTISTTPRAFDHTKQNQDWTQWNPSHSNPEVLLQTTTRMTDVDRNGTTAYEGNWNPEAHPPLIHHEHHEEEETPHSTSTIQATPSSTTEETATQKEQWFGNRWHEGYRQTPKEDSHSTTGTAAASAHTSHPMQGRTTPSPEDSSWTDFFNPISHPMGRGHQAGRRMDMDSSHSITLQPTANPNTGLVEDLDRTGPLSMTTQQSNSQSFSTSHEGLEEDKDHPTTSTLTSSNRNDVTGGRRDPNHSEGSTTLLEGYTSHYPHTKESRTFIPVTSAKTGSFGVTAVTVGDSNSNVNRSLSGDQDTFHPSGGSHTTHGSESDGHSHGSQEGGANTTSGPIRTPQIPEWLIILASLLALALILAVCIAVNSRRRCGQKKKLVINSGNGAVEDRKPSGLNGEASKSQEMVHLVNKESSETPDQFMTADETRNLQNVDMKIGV
UniProt P49368, sequence (P49368 whole entry): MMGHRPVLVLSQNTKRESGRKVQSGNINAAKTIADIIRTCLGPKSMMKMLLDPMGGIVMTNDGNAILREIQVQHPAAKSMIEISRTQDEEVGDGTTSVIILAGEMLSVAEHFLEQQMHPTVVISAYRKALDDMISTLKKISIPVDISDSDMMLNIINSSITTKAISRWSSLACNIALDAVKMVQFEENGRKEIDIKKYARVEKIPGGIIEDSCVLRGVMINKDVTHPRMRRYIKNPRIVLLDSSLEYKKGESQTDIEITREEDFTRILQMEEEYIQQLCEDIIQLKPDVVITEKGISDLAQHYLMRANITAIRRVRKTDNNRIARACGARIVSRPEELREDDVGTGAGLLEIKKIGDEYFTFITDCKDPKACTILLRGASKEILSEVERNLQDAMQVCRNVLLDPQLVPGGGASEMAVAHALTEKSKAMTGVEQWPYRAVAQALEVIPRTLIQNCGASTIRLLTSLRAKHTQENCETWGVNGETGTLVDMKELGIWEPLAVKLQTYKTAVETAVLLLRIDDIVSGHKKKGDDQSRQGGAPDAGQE
UniProt Q99832, sequence (Q99832 whole entry): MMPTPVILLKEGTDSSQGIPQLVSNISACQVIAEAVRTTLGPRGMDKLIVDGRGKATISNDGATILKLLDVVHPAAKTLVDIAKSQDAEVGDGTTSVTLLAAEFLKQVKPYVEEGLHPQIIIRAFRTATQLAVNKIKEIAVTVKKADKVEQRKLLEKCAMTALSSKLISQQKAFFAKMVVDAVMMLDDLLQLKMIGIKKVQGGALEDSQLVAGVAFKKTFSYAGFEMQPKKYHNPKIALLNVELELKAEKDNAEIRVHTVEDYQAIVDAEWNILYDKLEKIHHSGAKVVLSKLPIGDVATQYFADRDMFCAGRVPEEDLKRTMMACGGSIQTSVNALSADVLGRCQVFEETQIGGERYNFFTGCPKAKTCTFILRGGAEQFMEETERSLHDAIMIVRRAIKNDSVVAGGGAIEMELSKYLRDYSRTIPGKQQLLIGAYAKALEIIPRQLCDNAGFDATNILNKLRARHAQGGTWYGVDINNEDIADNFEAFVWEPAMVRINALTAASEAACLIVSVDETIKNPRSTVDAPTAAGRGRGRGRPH
UniProt O95273, sequence (O95273 whole entry): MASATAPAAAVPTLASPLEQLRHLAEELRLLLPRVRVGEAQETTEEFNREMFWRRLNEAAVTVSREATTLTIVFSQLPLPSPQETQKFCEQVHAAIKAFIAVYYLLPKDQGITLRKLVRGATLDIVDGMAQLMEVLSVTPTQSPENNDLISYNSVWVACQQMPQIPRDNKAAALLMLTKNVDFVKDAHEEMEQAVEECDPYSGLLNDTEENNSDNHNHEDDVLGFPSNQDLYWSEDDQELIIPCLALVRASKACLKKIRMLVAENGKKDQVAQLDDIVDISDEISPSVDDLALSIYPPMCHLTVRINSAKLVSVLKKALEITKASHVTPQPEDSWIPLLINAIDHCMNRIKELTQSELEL

Target	thermal stability z-score (potassium arsenate)	thermal stability z-score (lipoamide; [1])	thermal stability z-score (lipoamide; arsenate co-treatment: none)
CCDC186 (UniProt Q7Z3E2)	0.0522	-0.0502	-0.00496
CCDC191 (UniProt Q8NCU4)	-0.189	0.286	-0.0683
CCNA2 (UniProt P20248)	1.25	1.41	0.18
CCNB1 (UniProt P14635)	1.43	0.729	0.477
CCNB2 (UniProt O95067)	0.36	0.346	-0.108
CCND1 (UniProt P24385)	0.0378	-0.0213	-0.202
CCND3 (UniProt P30281)	-0.0207	0.241	0.374
CCNDBP1 (UniProt O95273)	0.133	0.104	-0.0265
CCNH (UniProt P51946)	0.325	-0.00877	0.0852
CCNK (UniProt O75909)	-0.771	0.743	-0.222
CCNT1 (UniProt O60563)	0.178	0.149	0.145
CCPG1 (UniProt Q9ULG6)	0.351	-2.1	-2.44
CCS (UniProt O14618)	3.23	1.32	0.653
CCSMST1 (UniProt Q4G0I0)	0.624	2.5	2.37
CCT2 (UniProt P78371)	-0.0294	0.119	-0.107
CCT3 (UniProt P49368)	0.00358	0.066	-0.106
CCT4 (UniProt P50991)	-0.223	-0.0959	-0.205
CCT5 (UniProt P48643)	0.118	-0.0313	-0.053
CCT6A (UniProt P40227)	-0.174	0.06	-0.18
CCT7 (UniProt Q99832)	-0.275	-0.0924	-0.191
CCT8 (UniProt P50990)	-0.245	-0.0223	-0.0937
CCZ1B|CCZ1	0.404	0.296	0.0817
CD2AP (UniProt Q9Y5K6)	0.988	0.591	0.887
CD2BP2 (UniProt O95400)	0.94	0.994	0.894
CD3EAP (UniProt O15446)	-3.13	0.354	-0.286
CD9 (UniProt P21926)	0.251	1.93	1.62
CD44 (UniProt P16070)	0.197	0.358	0.287
CD46 (UniProt P15529)	-0.443	-0.681	-0.571
